Reference: patent US20260306494A1, “LIQUID AND SOLID COMPOSITIONS OF IMIPRIDONE DERIVATIVES” (INSTITUT GUSTAVE ROUSSY, priority 2023, published 2026)
Each block holds one compound with its values, some of them ahead of it.

Assays:
physchem = conditions: water, solubility in water
recurrent H3K28M DMG = conditions: human, in vivo; cited from earlier work
[1] = in vivo; cited from earlier work

- solubility (physchem): 41.4 mg/mL
SMILES: Cc1ccccc1CN1C(=O)C2=C(CCN(Cc3ccccc3)C2)N2CCN=C12 [ONC201.2HCl]

SMILES: Cc1ccccc1CN1C(=O)C2=C(CCN(Cc3ccccc3)C2)N2CCN=C12 [ONC201, 7-Benzyl-4-(2-methylbenzyl)-1,2,6,7,8,9-hexahydroimidazo[1,2-a]pyrido[3,4-e]pyrimidin-5 (4H)-one]
- response of patients (recurrent H3K28M DMG): sustained response

SMILES: NC(=O)c1cccnc1 [Nicotinamide]
- NOAEL (No Observed Adverse Effect Level) [1]: around 200 mg/kg bw
